Results: patent US4208420A, “New benzo [d] thiazole derivatives, process for their preparation and their therapeutic applications” (priority 1977, dated 1980)

Tests used:
[1] = test system: reserpine-induced palpebral ptosis; test: antagonism of reserpine-induced palpebral ptosis, in rats; type: in vivo; conditions: Rattus norvegicus, po, as hydrochloride
Protocol: antagonism of reserpine-induced palpebral ptosis, in rats; The test materials were administered as the hydrochlorides, either intraperitoneally (or intravenously, in the course of cardiovascular tests), or orally.

[2] = test system: edema of the paw on subcutaneous carrageenin injection; test: inhibition of edema of the paw on subcutaneous carrageenin injection, in rats; type: in vivo; conditions: Rattus norvegicus, po, read-out: Anti-inflammatory action ED50 p.o.
Protocol: inhibition of edema of the paw on subcutaneous carrageenin injection, in rats; The test materials were administered as the hydrochlorides, either intraperitoneally (or intravenously, in the course of cardiovascular tests), or orally.

[3] = test system: blood pressure, femoral rate of flow; test: cardiovascular action: blood pressure and femoral rate of flow, in dogs; type: in vivo; conditions: i.v.
Protocol: determination of the blood pressure, of the femoral rate of flow and of the heart rate, and research for an antagonism or a potentiation of the catecholamines (epinephrine norepinephrine) on said parameters, in dogs; The test materials were administered as the hydrochlorides, either intraperitoneally (or intravenously, in the course of cardiovascular tests), or orally.

[4] = test system: isolated saphena vein; test: action on the unstriated fibers of the isolated saphena vein, in vitro; design: species or system dogs; conditions: for Action on isolated veins: at 2 × 10^-6 g/ml
Source text: (§1) research of an action on the unstriated fibers of the isolated saphena vein in dogs, and of the isolated ear artery of rabbits, in vitro.

[5] = test system: isolated ear artery; test: action on the unstriated fibers of the isolated ear artery, in vitro; design: species or system rabbits; conditions: for Action on isolated arteries: at 2 × 10^-6 g/ml
Source text: as §1

[6] = acute toxicity, in mice; type: in vivo; conditions: for LD50: mouse, in vivo, mice
Protocol: (§2) The test materials were administered as the hydrochlorides, either intraperitoneally (or intravenously, in the course of cardiovascular tests), or orally.
Acute toxicity, in mice, is low, both intraperitoneally and orally.

[7] = test system: d-amphetamine-induced stereotypes; test: potentiation of d-amphetamine-induced stereotypes, in rats; type: in vivo; conditions: at 3 mg/kg, p.o.
Protocol: potentiation of d-amphetamine-induced stereotypes, in rats;
as §2

[8] = test system: food intake; test: anorexiant effect (decreased food intake, in rats); type: in vivo; conditions: at 3 mg/kg, p.o.
Protocol: as §2
a central stimulant effect (increase of spontaneous motility, of amphetamine-induced stereotypes; of the antagonism of reserpine), sometimes accompanied by an anorexiant effect (decreased food intake, in rats);

[9] = test system: pain contractions subsequent to intraperitoneal injection of 0.75% acetic acid; test: Koster test: antagonism to pain contractions after intraperitoneal acetic acid, in mice; type: in vivo; conditions: Mus musculus, po, read-out: Analgesic action, Koster test ED50 p.o.
Protocol: antagonism to the pain contractions subsequent to intraperitoneal injection of 0.75% acetic acid, in mice (Koster test) The test materials were administered as the hydrochlorides, either intraperitoneally (or intravenously, in the course of cardiovascular tests), or orally.

[10] = test system: pain, in mice placed on a heating plate; test: Eddy test: inhibition of pain, in mice placed on a heating plate; type: in vivo; conditions: Mus musculus, po, read-out: Analgesic action, Eddy test ED50 p.o.
Protocol: inhibition of pain, in mice placed on a heating plate (Eddy test) The test materials were administered as the hydrochlorides, either intraperitoneally (or intravenously, in the course of cardiovascular tests), or orally.

[11] = test system: spontaneous motor activity; test: spontaneous motor activity, in mice; type: in vivo; conditions: at 3 mg/kg, p.o.
Protocol: determination of the spontaneous motor activity, in mice; The test materials were administered as the hydrochlorides, either intraperitoneally (or intravenously, in the course of cardiovascular tests), or orally.

[12] = test system: hypoxic asphyxia; test: cerebral protecting effect against hypoxic asphyxia under a reduced oxygen pressure; type: in vivo
[13] = test system: gastric ulcers due to stress; test: inhibition of gastric ulcers due to stress, in rats; type: in vivo

Cc1nc2c(s1)CC(N)CC2.Cl (centres unmarked) [Example 1, 2-Methyl-6-amino-4,5,6,7-tetrahydro-benzo[d]thiazole hydrochloride]
inhibition at 10 mg/kg [1]: 40% | ED50 [2]: 30 mg/kg | Cardiovascular action: blood pressure ([3]; 0.5 mg/kg): Hypotension | Cardiovascular action: blood pressure ([3]; 1-5 mg/kg): Hypertension | Action on isolated veins [4]: Contraction | Action on isolated arteries [5]: Contraction | LD50 ([6]; ip): < 100 mg/kg | LD50 ([6]; po): > 200 mg/kg

CNC1CCc2nc(C)sc2C1 (centres unmarked) [Example 2, 2-Methyl-6-methylamino-4,5,6,7-benzo[d]thiazole]
Action on amphetamine-induced stereotypes [7]: Increase | Anorexiant action [8]: anorexiant action | ED50 [9]: 30 mg/kg | ED50 [10]: 3 mg/kg | ED50 [2]: ≤ 10 mg/kg | Cardiovascular action: blood pressure ([3]; 0.5 mg/kg): Hypotension | Cardiovascular action: blood pressure ([3]; 1 mg/kg): Hypertension | Action on isolated veins [4]: Contraction | Action on isolated arteries [5]: Contraction | LD50 ([6]; ip): ≥ 100 mg/kg | LD50 ([6]; po): > 200 mg/kg

CNC1CCc2ncsc2C1.Cl (centres unmarked) [Example 3, 6-Methylamino-4,5,6,7-tetrahydro-benzo[d]thiazole hydrochloride]
Action on amphetamine-induced stereotypes [7]: Increase | Action on spontaneous motility [11]: Increase | Anorexiant action [8]: Anorexiant action | ED50 [9]: 5 mg/kg | ED50 [10]: ≤ 3 mg/kg | ED50 [2]: < 30 mg/kg | Cardiovascular action: blood pressure ([3]; 1-5 mg/kg): Hypertension | Cardiovascular action: femoral rate of flow ([3]; 1-5 mg/kg): substantial increase | Action on the isolated vein ([4]; concentration not given): Contraction | Action on the isolated artery ([5]; concentration not given): 0 | toxicity at the active dosages ([6]; at the active dosages): does not exhibit noteworthy toxicity | LD50 ([6]; ip): > 200 mg/kg | LD50 ([6]; po): > 200 mg/kg | cerebral protecting effect against hypoxic asphyxia [12]: marked cerebral protecting effect | inhibiting effect on the development of gastric ulcers due to stress [13]: potent inhibiting effect

CNC1CCCc2scnc21 (centres unmarked) [Example 4, 4-Methylamino-4,5,6,7-tetrahydro-benzo[d]thiazole]
LD50 ([6]; ip): > 200 mg/kg | LD50 ([6]; po): > 200 mg/kg

NC1CCc2scnc2C1 (centres unmarked) [Example 7, 5-Amino-4,5,6,7-tetrahydro-benzo[d]thiazole]
LD50 ([6]; ip): > 200 mg/kg | LD50 ([6]; po): > 200 mg/kg
